Read-outs that look alike come from different tables or passages of the source.
Tests used:
[1] = tested on: 6 Hz-induced seizures in Swiss mice; experiment: 6 Hz seizure model in mice; format: in vivo, mouse; details: 300 mg/kg i.p., positive control, n = 10
Experimental: Swiss outbred mice used in 6 Hz seizure experiments were purchased from Australian Resources Centre (stock ARC(S); Canning Vale, Australia) and single housed for 1 week prior to experimentation to prevent fighting.
6 Hz seizures were induced in Swiss male mice (9–10 weeks old) using an Ugo Basile electroconvulsive therapy unit (Model 57,800; Gemonio, Italy). Mice were pre-treated with vehicle, SB2193 (10 mg/kg, 30 mg/kg, 100 mg/kg) or valproic acid (300 mg/kg) via i.p. injection 15 min before seizure induction based on the time-to-peak brain concentration determined in pharmacokinetic studies. […] A drop of 0.5% tetracaine was applied to both corneas immediately following the i.p. injection to provide local anaesthesia. Immediately prior to the electrical stimulation, saline was applied to each cornea to ensure electrical conductivity. Corneal electroshocks were administered at 44 mA, 6 Hz, 3 s shock duration, with a […] rectangular pulse width. Mice were shocked and scored by an observer blinded to treatment for the presence of twitching of the vibrissae, stun, myoclonus, rearing, forelimb clonus, and/or Straub tail. […] The ED50 for SB2193 was calculated using computer-assisted log-probit linear regression analysis ([Litchfield and Wilcoxon, 1949]). A χ^2 test was performed to assess statistical significance.

[2] = biological target: T1, human Cav3.1 (Homo sapiens, UniProt O43497); experiment: FLIPR calcium flux assay, Cav3.1; format: cell-based
T1 construct: expressed in transfected cells; host or cells: HEK293 FlpIn T-Rex cells (Invitrogen)
Experimental: (§1) HEK293 FlpIn T-Rex cells (Invitrogen, CA, United States) stably expressing human Cav3.1, Cav3.2, or Cav3.3 were maintained in Dulbecco’s Modified Eagle Medium (DMEM) supplemented with 10% foetal bovine serum (FBS), 1% penicillin-streptomycin (P/S) at 37°C, and 5% CO2 as previously described ([Bladen et al., 2021]; [Udoh et al., 2022]). Hygromycin (80 μg/mL) and blasticidin (15 μg/mL) were used as selection antibiotics and cells were passaged at 80% confluency. For experiments, cells were resuspended in Leibovitz’s L-15 media (containing 1% FBS, 1% P/S, 15 mM glucose, 2 μg/mL tetracycline), plated in black, clear-bottomed poly-D-lysine-coated 96-well plates (90 μL) (Corning, NY, United States), and incubated overnight in ambient air at 37°C. All compounds tested in cellular assays were prepared as stock solutions in DMSO and final DMSO concentration was 0.1%.
(§2) Intracellular calcium flux was measured using a fluorometric imaging plate-reader (FLIPR) Calcium 5 Assay Kit and FlexStation 3 Microplate Reader (Molecular Devices, San Jose, United States). Calcium 5 dye (90 μL) prepared in low potassium HBSS (Thermo Fisher Scientific) containing (in mM) 145 NaCl, 22 HEPES, 0.338 Na2HPO4, 4.17 NaHCO3, 0.441 KH2PO4, 0.407 MgSO4, 0.493 MgCl2, 1.26 CaCl2, 5.56 glucose, and […] with pH 7.4 was applied to each well and incubated for 1 h at 37°C, ambient air prior to testing.
(§3) Fluorescence readings were taken at 2 s intervals (λ excitation = 485 nm, λ emission = 525 nm). Following 2 min baseline reading, 20 μL of SB2193, SB2193F, or NNC 55-0396 (10 nM—10 μM) was added to cells and read for 5 min, then CaCl2 (10 mM) was added and read for 3 min. Baseline fluorescence averaged over the 20 s interval preceding CaCl2 addition was subtracted and normalized to the vehicle response. Changes in fluorescence were measured in relative fluorescence units (RFU). All compounds were assayed in ≥ five independent experiments (n = 5–8) performed in duplicate. Order of compound addition and location on the plate were varied between replicates. Data was fit to a four-parameter non-linear dose-response curve using GraphPad Prism 8.2.0 software (La Jolla, United States) to determine IC50 values.

[3] = biological target: T2, human Cav3.2 (Homo sapiens, UniProt O95180); experiment: FLIPR calcium flux assay, Cav3.2; format: cell-based
T2 construct: expressed in transfected cells; host or cells: HEK293 FlpIn T-Rex cells (Invitrogen)
Experimental: Intracellular calcium flux was measured using a fluorometric imaging plate-reader (FLIPR) Calcium 5 Assay Kit and FlexStation 3 Microplate Reader (Molecular Devices, San Jose, United States). […]
Fluorescence readings were taken at 2 s intervals (λ excitation = 485 nm, λ emission = 525 nm). […] Baseline fluorescence averaged over the 20 s interval preceding CaCl2 addition was subtracted and normalized to the vehicle response. Changes in fluorescence were measured in relative fluorescence units (RFU). […]

[4] = biological target: T3, human Cav3.3 (Homo sapiens, UniProt Q9P0X4); experiment: FLIPR calcium flux assay, Cav3.3; format: cell-based
T3 construct: expressed in transfected cells; host or cells: HEK293 FlpIn T-Rex cells (Invitrogen)
Experimental: as §1, §2, §3

[5] = Pharmacokinetics in mouse plasma and brain after single i.p. injection; format: in vivo; details: both sexes, 10 mg/kg i.p.; for Tmax / half-life / Cmax: wildtype F1, ip; for AUC: wildtype F1, mouse, 10 mg/kg
Experimental: SB2193 and SB2193F were prepared in ethanol-Tween 80%–0.9% saline (1:1:18 ratio) and valproic acid in 0.9% saline. All doses were completely soluble in this vehicle except for the 100 mg/kg SB2193 dose, which was a suspension.
Male and female wildtype F1 mice aged 21–28 days postnatal received a single i. p. injection of 10 mg/kg SB2193 or SB2193F. At selected timepoints (15–240 min), mice were anesthetised with isoflurane, blood was collected via cardiac puncture and whole brains were harvested. Brains were snap frozen on dry ice, and blood plasma was isolated via centrifugation (4,000 g for 10 min, 4^○C). Brain and plasma samples were stored at −80°C until assayed.
Plasma samples (50 μL) were spiked with an internal standard (diazepam) and vortexed with 1 M NaOH (50 μL) and methyl tert-butyl ether (1 mL) to achieve protein precipitation. The organic layer was isolated by centrifugation (4,000 g for 3 min) before being frozen for 60 min at −80°C, evaporated to dryness using N2, and reconstituted in 30% acetonitrile and 0.1% formic acid in water for analysis. Brain hemispheres were homogenised in a 10x w/v 1:1 methanol-water solution using a Biospec Tissue-Tearor (Bartlesville, United States) and centrifuged at 20,000 g for 30 min at 4°C. Supernatant (100 μL) was collected and prepared following the same method as plasma.
SB2193 and SB2193F concentrations in brain and plasma samples were assessed by high performance liquid chromatography-tandem mass spectrometry (HPLC-MS/MS) using a Shimadzu Nexera liquid chromatograph coupled with a Shimadzu 8,030 triple quadrupole mass spectrometer (Kyoto, Japan). Samples were run through a Zorbax C18 HPLC Column equipped with a Zorbax Eclipse XDB-C8 guard column (2.1 × 50 mm, 3.5 μm particle size; Agilent, Santa Clara, United States) with an injection volume of 10 μL using a gradient elution. Mobile phases of acetonitrile and 0.1% formic acid in water were delivered at a flow rate of 0.6 mL/min over 4.16 min, with a stepwise adjustment of mobile phase concentration gradient over time to optimise ion separation.
Quantification was achieved by comparing experimental samples to plasma and brain standards prepared with known concentrations of SB2193 or SB2193F. Samples were quantified against a 7-point standard curve (R ^2 > 0.98 for both analytes).
Concentrations of SB2193 or SB2193F in plasma and brain at each timepoint were averaged and concentration-time curves were generated using GraphPad Prism. Pharmacokinetic parameters were calculated using non-compartmental analysis. The linear-log trapezoidal method was used to calculate drug exposure (area under the curve, AUC) using equations previously described ([Hawkins et al., 2017]).

[6] = tested on: T-type channels; design: method as in Kevin et al., 2022; details: single 10 μM concentration, FLIPR calcium flux and whole-cell patch clamp, ref Kevin et al., 2022; cited from earlier work
[7] = tested on: cannabinoid CB1 receptors; design: method as in Kevin et al., 2022; details: ref Kevin et al., 2022; cited from earlier work
[8] = tested on: 6 Hz-induced seizures in Swiss mice; design: method as in Barton et al., 2001; details: 6 Hz model, ref Barton et al., 2001; cited from earlier work
[9] = FLIPR calcium flux, HEK293 cells, n = 5–8

T3 sequence (Q9P0X4 whole entry): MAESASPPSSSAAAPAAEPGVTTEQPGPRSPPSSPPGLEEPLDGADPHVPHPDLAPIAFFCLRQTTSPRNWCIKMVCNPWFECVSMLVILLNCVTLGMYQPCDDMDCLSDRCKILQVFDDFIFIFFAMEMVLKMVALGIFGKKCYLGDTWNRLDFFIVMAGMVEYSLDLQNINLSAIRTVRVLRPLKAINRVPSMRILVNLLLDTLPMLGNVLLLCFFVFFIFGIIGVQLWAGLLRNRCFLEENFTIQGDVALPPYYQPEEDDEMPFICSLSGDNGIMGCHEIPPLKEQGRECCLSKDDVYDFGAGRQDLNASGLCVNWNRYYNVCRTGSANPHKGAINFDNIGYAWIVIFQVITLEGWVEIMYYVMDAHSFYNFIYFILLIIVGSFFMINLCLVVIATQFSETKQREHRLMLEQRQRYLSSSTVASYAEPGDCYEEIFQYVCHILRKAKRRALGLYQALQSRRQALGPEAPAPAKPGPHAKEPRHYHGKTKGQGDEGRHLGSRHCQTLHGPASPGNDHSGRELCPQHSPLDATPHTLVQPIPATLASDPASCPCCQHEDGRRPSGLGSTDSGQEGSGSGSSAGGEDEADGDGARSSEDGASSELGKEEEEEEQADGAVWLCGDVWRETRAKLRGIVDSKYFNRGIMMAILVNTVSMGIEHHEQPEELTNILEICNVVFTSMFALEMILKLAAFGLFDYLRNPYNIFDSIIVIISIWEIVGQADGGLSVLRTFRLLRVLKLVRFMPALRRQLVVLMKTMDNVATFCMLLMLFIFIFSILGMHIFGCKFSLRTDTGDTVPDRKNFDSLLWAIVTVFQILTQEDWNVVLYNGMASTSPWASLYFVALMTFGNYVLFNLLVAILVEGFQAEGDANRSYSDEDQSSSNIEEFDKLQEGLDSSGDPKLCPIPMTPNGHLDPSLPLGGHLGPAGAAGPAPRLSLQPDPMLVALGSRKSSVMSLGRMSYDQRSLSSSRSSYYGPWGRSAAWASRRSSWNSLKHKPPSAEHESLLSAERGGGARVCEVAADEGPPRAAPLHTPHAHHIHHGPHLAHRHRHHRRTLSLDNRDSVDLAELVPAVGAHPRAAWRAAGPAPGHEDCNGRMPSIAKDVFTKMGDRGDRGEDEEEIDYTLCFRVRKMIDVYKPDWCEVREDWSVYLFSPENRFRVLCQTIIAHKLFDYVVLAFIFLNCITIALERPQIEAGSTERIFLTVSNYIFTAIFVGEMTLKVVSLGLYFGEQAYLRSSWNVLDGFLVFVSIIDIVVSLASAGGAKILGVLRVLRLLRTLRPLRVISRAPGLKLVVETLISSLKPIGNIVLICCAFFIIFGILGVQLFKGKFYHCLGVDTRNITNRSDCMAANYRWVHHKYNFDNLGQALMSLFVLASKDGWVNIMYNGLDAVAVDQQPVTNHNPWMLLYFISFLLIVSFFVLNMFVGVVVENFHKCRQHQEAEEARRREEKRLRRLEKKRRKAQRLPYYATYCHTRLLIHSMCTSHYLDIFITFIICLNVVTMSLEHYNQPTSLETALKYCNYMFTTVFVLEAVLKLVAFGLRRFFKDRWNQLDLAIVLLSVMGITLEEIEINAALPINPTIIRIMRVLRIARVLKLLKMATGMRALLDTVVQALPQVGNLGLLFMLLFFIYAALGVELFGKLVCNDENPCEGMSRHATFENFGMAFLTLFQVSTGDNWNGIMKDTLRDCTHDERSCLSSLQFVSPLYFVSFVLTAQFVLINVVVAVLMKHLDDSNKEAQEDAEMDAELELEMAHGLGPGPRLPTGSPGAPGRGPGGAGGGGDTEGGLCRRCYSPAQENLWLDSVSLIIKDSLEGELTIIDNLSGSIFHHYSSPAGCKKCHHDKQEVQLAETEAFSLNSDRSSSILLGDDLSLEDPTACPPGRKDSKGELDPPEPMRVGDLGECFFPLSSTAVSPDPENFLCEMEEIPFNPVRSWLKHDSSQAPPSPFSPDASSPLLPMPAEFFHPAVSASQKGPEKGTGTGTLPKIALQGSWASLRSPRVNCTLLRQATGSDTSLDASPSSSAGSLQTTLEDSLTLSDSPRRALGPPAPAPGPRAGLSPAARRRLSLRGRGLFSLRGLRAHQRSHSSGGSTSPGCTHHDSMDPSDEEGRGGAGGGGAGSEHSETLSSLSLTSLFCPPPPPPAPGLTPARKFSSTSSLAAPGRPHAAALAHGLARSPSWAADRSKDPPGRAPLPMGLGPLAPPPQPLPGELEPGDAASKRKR
T1 sequence (O43497 whole entry): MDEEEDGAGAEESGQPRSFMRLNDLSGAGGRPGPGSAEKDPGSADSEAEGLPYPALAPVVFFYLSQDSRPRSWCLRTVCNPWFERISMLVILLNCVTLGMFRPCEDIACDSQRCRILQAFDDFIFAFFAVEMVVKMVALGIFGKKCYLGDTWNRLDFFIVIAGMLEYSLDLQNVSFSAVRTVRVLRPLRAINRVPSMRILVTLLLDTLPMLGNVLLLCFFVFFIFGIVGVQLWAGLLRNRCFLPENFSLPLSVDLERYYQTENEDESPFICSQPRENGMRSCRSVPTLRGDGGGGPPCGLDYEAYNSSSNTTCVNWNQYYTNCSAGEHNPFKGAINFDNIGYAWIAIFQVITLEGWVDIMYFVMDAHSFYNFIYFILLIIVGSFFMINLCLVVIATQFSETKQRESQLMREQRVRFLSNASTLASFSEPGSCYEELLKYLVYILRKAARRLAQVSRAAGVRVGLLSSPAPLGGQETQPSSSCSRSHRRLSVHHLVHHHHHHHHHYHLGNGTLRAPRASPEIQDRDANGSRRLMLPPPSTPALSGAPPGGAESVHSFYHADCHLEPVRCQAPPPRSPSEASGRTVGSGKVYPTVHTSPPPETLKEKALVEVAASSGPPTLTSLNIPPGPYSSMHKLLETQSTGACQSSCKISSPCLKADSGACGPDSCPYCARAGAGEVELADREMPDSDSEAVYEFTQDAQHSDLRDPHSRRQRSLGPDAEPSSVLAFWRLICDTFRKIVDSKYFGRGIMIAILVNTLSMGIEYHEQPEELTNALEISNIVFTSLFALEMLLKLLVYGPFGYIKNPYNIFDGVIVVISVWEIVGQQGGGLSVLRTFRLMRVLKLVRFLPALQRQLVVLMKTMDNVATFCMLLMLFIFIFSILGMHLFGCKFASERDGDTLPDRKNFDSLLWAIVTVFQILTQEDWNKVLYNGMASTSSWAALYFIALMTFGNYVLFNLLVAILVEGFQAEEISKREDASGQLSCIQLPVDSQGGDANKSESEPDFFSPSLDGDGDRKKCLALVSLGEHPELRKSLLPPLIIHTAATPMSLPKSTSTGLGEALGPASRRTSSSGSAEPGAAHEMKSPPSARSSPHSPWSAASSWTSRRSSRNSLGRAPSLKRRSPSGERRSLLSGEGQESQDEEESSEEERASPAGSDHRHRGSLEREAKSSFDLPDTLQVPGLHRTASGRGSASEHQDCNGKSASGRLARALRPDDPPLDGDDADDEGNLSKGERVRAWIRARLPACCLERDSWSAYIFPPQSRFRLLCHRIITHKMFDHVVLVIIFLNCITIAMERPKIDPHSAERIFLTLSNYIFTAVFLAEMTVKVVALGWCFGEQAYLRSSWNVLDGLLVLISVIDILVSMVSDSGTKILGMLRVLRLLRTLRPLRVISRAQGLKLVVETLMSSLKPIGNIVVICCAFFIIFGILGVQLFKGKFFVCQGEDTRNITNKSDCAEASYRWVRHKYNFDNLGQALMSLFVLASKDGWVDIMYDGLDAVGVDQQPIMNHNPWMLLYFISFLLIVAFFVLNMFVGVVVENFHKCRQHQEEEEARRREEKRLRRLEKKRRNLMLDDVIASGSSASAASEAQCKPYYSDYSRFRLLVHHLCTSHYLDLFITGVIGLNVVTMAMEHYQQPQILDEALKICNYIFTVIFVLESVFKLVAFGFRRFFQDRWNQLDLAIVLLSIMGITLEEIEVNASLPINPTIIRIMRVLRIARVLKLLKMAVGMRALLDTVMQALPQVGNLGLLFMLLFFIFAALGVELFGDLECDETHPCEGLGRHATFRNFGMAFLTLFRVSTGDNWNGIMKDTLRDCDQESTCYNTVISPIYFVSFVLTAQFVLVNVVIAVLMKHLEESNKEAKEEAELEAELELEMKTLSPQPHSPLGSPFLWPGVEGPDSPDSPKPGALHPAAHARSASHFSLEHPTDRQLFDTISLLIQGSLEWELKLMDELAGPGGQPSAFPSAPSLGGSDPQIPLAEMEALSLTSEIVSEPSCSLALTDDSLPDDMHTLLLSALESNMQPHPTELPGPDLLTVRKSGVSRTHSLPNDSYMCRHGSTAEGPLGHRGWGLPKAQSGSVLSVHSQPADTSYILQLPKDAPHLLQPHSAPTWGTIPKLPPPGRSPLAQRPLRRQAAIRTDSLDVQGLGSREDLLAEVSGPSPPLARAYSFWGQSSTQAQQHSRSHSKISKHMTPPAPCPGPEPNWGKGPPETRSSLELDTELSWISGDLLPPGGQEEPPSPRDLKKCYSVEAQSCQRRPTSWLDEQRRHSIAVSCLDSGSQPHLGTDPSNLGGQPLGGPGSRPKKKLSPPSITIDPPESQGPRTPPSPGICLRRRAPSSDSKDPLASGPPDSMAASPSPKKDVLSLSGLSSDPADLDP

CCCC(CCC)C(=O)O [valproic acid, reference compound]
protection from seizures compared to vehicle [1]: significant protection

CC(C)(C)OC(=O)N1CCN(C(=O)c2cn(CCCCCF)c3ccccc23)CC1 [SB2193F]
IC50 [2]: 2300 nM | IC50 [3]: 3160 nM | IC50 [4]: 8600 nM | Kp ([5]; wildtype F1, brain/plasma, ip, mouse, read-out: brain-plasma ratio): 0.48 | Tmax ([5]; mouse brain): ≤ 15 min | half-life ([5]; mouse brain): 14 min | Cmax ([5]; mouse brain, read-out: Cmax): 2300 ± 300 nM | Cmax ([5]; mouse brain, read-out: Cmax (μg/mL)): 0.97 ± 0.1 µg/mL | Tmax ([5]; mouse plasma): ≤ 15 min | half-life ([5]; mouse plasma): 23 min | Cmax ([5]; mouse plasma, read-out: Cmax): 3100 ± 700 nM | Cmax ([5]; mouse plasma, read-out: Cmax (μg/mL)): 1.3 ± 0.3 µg/mL | AUC ([5]; brain, ip, mouse brain, brain concentration converted assuming density of 1 g/mL): 350 ng·h/mL | AUC ([5]; plasma, ip, mouse plasma): 733 ng·h/mL | inhibition of T-type channels [6]: strongly inhibit | activity at cannabinoid CB1 receptors [7]: minimal activity

CCCCCn1cc(C(=O)N2CCN(C)CC2)c2ccccc21 [reference compound]
activity at cannabinoid CB1 receptors [7]: minimal activity

CCC1(C)CC(=O)NC1=O (centres unmarked) [ethosuximide]
ED50 [8]: > 600 mg/kg

CC(C)[C@H]1c2ccc(F)cc2CC[C@@]1(CCN(C)CCCc1nc2ccccc2[nH]1)OC(=O)C1CC1 [NNC 55-036, reference compound]
Cav3.1 pIC50 [2, 9]: 5.9 ± 0.06 | IC50 ([2]; FLIPR calcium flux, HEK293 cells, n = 5–8, read-out: Cav3.1 IC50): 1300 nM | Cav3.3 pIC50 [4, 9]: 5.9 ± 0.06 | IC50 ([4]; FLIPR calcium flux, HEK293 cells, n = 5–8, read-out: Cav3.3 IC50): 1200 nM

From paper PMC10110893, “[…]-derived synthetic cannabinoids inhibit T-type calcium channels with divergent effects on seizures in rodent models of epilepsy” (Frontiers in Physiology, 2023)
